# From ChEMBL document CHEMBL4715869, “N-(Pyrimidin-2-yl)-1,2,3,4-tetrahydroisoquinolin-6-amine Derivatives as Selective Janus Kinase 2 Inhibitors for the Treatment of Myeloproliferative Neoplasms” (J Med Chem, 2020)
# Activity calls are given as the source filed them. No cut-off for these calls is given here.
# Legend:
# [1] = tested on: L02; assay: Cytotoxicity against human L02 cells assessed as reduction in cell viability incubated for 72 hrs by MTT assay; type: cell-based; details: L02, 72 h
# [2] = tested on: BaF3; assay: Antitumor activity against mouse BAF3 cells harboring JAK2 V617F mutant implanted in Balb/c mouse assessed as decrease in liver weight at 30 mg/kg, po qd administered starting from day 4 to 20 and measured on day 25 relative to control; type: functional; design: scale not given: the % may be the effect or the level left; details: time 21 day
# [3] = Cmax in male Sprague-Dawley rat at 5 mg/kg, iv administered […] measured upto 24 hrs by LC/MS/MS analysis; type: ADME, organism-based; design: route intravenous, dose 5 mg/kg, time <=24; details: in vivo
# [4] = Toxicity in NOD/SCID mouse xenografted with human SET2 cells assessed as animal survival at 15 mg/kg, po qd administered for 16 days and measured every 2 days; type: organism-based; details: in vivo, 384 h, time 16 day
# [5] = tested on: BaF3; assay: Antitumor activity against mouse BAF3 cells harboring JAK2 V617F mutant implanted in Balb/c mouse assessed as decrease in spleen weight at 30 mg/kg, po qd administered starting from day 4 to 20 and measured on day 25 relative to control; type: functional; design: scale not given: the % may be the effect or the level left; details: time 21 day
# [6] = tested on: SET-2; assay: Antitumor activity against human SET2 cells xenografted in NOD/SCID mouse assessed as tumor growth inhibition at 60 mg/kg, po qd administered for 16 days and measured every 2 days relative to control; type: functional; details: SET-2, po, 384 h, time 16 day, read-out: TGI
# [7] = target: T1, Signal transducer and transcription activator 6 (Mus musculus) (UniProt P52633); assay: Inhibition of STAT6 phosphorylation in mouse BAF3 cells at 1000 nM after 2 hrs by Western blot analysis; type: cell-based
# T1 sequence (whole entry): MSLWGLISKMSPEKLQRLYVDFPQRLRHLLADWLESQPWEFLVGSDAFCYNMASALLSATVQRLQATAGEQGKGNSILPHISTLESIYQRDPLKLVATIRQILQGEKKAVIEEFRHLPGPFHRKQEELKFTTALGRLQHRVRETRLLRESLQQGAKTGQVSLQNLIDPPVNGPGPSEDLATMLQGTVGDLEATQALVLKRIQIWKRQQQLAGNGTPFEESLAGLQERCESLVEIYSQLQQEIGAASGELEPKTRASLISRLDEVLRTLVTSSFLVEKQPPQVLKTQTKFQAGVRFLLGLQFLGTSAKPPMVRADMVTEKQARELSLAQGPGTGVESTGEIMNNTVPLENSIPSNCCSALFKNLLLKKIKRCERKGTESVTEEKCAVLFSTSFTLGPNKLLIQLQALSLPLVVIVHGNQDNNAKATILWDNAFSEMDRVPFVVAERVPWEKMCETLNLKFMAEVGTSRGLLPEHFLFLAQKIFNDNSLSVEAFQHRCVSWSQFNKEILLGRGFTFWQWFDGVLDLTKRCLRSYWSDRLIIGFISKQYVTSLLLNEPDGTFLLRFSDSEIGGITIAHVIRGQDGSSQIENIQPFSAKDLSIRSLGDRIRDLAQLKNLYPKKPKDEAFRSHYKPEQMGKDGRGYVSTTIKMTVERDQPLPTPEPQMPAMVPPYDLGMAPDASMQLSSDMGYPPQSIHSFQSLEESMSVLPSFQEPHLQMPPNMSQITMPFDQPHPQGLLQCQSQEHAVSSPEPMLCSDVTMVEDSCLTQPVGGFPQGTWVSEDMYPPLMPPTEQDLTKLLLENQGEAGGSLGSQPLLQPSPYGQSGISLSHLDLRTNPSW
# [8] = organism: Homo sapiens; assay: Selectivity index, ratio of IC50 for inhibition of FLT3 ITD mutant in human MOLM13 cells to IC50 for inhibition of JAK2 V617F mutant in human SET-2 cells; type: cell-based
# [9] = target: T2, Tyrosine-protein kinase JAK3 (Homo sapiens, UniProt P52333); assay: Inhibition of recombinant human JAK3 (781 to end residues) using GGEEEEYFELVKKKK as substrate measured after 40 mins in presence of [gamm33P]ATP by scintillation counting method
# T2 sequence (P52333 whole entry): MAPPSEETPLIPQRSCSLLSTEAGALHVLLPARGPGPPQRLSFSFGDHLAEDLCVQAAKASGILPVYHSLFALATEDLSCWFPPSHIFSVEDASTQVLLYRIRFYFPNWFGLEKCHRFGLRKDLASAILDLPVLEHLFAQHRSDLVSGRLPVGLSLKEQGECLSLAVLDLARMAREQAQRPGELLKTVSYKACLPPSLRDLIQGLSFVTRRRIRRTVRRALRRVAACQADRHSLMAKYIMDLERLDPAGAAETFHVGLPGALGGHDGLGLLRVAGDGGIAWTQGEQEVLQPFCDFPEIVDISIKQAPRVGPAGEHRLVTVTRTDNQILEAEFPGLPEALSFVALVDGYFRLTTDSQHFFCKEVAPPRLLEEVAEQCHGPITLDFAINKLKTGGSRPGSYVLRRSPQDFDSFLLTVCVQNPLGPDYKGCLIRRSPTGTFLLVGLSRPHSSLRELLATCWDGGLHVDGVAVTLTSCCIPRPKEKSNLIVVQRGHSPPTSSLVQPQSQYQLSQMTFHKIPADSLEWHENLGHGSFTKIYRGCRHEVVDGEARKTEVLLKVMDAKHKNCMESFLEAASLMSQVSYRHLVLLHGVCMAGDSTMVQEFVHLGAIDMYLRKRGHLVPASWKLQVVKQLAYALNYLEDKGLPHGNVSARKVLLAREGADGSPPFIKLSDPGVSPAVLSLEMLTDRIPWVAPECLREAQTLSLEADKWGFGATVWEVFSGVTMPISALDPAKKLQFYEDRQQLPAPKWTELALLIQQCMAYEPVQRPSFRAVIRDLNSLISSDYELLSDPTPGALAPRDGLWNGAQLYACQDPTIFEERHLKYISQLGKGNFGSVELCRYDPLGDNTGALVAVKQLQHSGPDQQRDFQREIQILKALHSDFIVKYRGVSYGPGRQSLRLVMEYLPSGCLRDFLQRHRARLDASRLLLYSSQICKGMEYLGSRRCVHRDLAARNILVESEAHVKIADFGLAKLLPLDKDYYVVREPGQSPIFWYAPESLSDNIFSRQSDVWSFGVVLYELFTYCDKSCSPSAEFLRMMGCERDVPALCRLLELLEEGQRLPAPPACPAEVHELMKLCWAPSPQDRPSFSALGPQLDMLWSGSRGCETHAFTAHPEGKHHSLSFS
# [10] = tested on: Tyrosine-protein kinase JAK2 (Mus musculus), Q62120 [V617F]; assay: Inhibition of JAK2 V617F mutant in mouse BAF3 cells assessed as decrease in STAT5 phosphorylation at 50 nM after 2 hrs by Western blot analysis; type: cell-based
# [11] = Cytotoxicity against rat H9c2(2-1) cells assessed as reduction in cell viability incubated for 72 hrs by MTT assay; type: cell-based; details: H9c2, 72 h
# [12] = Intrinsic clearance in rat liver microsomes; type: ADME, Microsome; details: read-out: CLH (converted)
# [13] = tested on: Receptor-type tyrosine-protein kinase FLT3 (Homo sapiens), P36888 [UNDEFINED MUTATION]; assay: Inhibition of FLT3 ITD mutant in human MOLM13 cells assessed as residual activity at 100 nM relative to control; type: cell-based; details: MOLM-13
# Receptor-type tyrosine-protein kinase FLT3 (Homo sapiens), P36888 [UNDEFINED MUTATION], sequence (P36888 whole entry, looked up, change not shown): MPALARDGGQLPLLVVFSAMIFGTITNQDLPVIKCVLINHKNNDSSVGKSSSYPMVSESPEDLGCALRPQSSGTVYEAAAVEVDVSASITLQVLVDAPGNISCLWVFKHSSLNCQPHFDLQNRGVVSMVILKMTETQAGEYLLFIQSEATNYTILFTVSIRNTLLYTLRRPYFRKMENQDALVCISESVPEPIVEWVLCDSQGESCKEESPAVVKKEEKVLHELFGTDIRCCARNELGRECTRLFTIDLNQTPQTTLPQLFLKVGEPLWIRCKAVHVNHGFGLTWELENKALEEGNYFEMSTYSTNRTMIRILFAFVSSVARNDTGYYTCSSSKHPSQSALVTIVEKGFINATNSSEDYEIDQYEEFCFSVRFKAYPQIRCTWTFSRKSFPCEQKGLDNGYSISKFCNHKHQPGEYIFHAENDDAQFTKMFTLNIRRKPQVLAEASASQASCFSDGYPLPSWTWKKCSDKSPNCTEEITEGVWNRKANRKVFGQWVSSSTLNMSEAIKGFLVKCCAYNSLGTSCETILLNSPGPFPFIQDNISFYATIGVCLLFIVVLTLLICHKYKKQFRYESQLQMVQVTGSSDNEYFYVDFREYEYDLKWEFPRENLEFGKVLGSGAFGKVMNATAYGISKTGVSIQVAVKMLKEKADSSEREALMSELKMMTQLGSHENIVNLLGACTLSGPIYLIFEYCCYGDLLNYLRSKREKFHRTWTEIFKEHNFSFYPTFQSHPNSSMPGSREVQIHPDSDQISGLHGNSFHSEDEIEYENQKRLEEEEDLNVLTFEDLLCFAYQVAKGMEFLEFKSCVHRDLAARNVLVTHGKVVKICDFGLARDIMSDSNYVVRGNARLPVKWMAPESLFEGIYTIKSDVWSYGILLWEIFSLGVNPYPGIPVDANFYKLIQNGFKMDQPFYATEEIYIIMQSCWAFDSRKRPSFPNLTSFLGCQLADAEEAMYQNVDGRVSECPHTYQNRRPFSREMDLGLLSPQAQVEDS
# Tyrosine-protein kinase JAK2 (Mus musculus), Q62120 [V617F], sequence (Q62120 as listed by the source): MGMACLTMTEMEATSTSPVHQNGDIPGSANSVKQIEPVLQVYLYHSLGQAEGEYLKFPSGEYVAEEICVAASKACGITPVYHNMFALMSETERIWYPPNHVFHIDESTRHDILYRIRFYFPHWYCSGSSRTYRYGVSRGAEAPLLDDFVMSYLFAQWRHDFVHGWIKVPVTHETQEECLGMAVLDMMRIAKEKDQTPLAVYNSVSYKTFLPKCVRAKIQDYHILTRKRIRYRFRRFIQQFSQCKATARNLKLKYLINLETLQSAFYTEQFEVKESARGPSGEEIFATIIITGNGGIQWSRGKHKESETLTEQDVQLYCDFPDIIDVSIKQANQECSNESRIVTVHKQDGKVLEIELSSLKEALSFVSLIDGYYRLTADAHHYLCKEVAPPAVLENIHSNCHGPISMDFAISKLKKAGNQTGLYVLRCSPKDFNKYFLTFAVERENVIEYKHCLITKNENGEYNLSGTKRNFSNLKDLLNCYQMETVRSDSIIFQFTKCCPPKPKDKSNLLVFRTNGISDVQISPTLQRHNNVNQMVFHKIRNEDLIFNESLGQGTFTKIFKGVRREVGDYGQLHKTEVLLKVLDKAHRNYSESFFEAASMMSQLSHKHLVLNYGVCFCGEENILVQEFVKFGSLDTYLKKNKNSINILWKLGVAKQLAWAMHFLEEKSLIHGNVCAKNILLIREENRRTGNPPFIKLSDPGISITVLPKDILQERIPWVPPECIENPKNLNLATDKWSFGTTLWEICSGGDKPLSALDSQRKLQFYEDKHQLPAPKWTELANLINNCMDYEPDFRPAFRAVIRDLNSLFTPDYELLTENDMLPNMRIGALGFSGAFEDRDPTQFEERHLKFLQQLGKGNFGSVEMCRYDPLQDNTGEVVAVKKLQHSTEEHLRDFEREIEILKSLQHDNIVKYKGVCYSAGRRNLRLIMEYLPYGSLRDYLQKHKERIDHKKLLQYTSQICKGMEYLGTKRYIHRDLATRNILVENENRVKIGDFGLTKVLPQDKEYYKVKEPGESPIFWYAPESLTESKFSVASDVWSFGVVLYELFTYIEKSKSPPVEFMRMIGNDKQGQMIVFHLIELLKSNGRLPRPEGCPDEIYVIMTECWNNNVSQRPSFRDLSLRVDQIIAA
smiles,measurement,setting,value
Cc1cnc(Nc2ccc3c(c2)CCN(C(=O)/C=C/CN(C)C)C3)nc1-c1cnn(C(C)C)c1,IC50,[1],7.22 µM
same,Activity,[2],36.2%
same,Cmax,[3],479 ng/mL
same,Activity,[4],Non-Toxic
same,Activity,[5],44%
same,inhibition in vivo at 60 mg/kg,[6],82.3%
same,inhibition,[7],inactive
same,Ratio IC50,[8],75.2
same,IC50,[9],0.094 µM
same,inhibition,[10],Active
same,IC50,[11],6.93 µM
same,CLint scaled,[12],423 mL/min/kg
same,Activity,[13],54%
